Tests used:
Assay type in all cases: functional, Cricetulus griseus
CHO [1] = experiment: Sensitization of colchicine treated parental (PAR)CHO cells, measured at concentration 0.1(mg/L)
CHO [2] = experiment: The sensitizing capacity for colchicine treatment of parental (PAR)CHO cells at concentration 1.0 (mg/L)
CHO [3] = experiment: The sensitizing capacity for colchicine treatment of multi drug resistance(MDR) in CHO cell at concentration 0.1(mg/L).
CHO [4] = experiment: The sensitizing capacity for colchicine treatment of multi drug resistance (MDR) CHO cell at concentration 1.0(mg/L).

CC[C@@H](C)[C@H]1C(=O)NCC(=O)N(C)[C@@H](C(C)C)C(=O)N[C@@H](Cc2ccc(OC)cc2)C(=O)O[C@H](C)C(=O)N2CCCC[C@H]2C(=O)N(C)[C@@H](C(C)C)C(=O)N[C@@H](C(C)C)C(=O)N(C)[C@H](CC(=O)N[C@H](CO)C(C)C)C(=O)N(C)[C@@H]([C@@H](C)CC)C(=O)N1C
Activity (CHO [1]): 7.6
Activity (CHO [2]): 9.8
Activity (CHO [3]): 3.2
Activity (CHO [4]): 144

CC[C@H](C)[C@H]1C(=O)NCC(=O)N(C)[C@@H](C(C)C)C(=O)N[C@@H](Cc2ccc(OC)cc2)C(=O)O[C@H](C)C(=O)N2CCCC[C@H]2C(=O)N(C)[C@@H](C(C)C)C(=O)N[C@@H](C(C)C)C(=O)N(C)[C@@H](CC(=O)OCCC(C)(C)C)C(=O)N(C)[C@@H]([C@@H](C)CC)C(=O)N1C
Activity (CHO [1]): 7.5
Activity (CHO [2]): 8.7
Activity (CHO [3]): 1.9
Activity (CHO [4]): 95

CC[C@H](C)[C@H]1C(=O)NCC(=O)N(C)[C@@H](C(C)C)C(=O)N[C@@H](Cc2ccc(OC)cc2)C(=O)O[C@H](C)C(=O)N2CCCC[C@H]2C(=O)N(C)[C@@H](C(C)C)C(=O)N[C@@H](C(C)C)C(=O)N(C)[C@@H](CC(=O)OCC23CC4CC(CC(C4)C2)C3)C(=O)N(C)[C@@H]([C@@H](C)CC)C(=O)N1C
Activity (CHO [1]): 5.9
Activity (CHO [2]): 8.5
Activity (CHO [3]): 1
Activity (CHO [4]): 6.7

CC[C@H](C)[C@H]1C(=O)NCC(=O)N(C)[C@@H](C(C)C)C(=O)N[C@@H](Cc2ccc(OC)cc2)C(=O)O[C@H](C)C(=O)N2CCCC[C@H]2C(=O)N(C)[C@@H](C(C)C)C(=O)N[C@@H](C(C)C)C(=O)N(C)[C@@H](CC(=O)OC23CC4CC(CC(C4)C2)C3)C(=O)N(C)[C@@H]([C@@H](C)CC)C(=O)N1C
Activity (CHO [1]): 4.5
Activity (CHO [2]): 6
Activity (CHO [3]): 1.9
Activity (CHO [4]): 77

CC[C@@H](C)[C@H]1C(=O)N(C)CC(=O)N(C)[C@@H](C(C)C)C(=O)N(C)[C@@H](Cc2ccc(OC)cc2)C(=O)O[C@H](C)C(=O)N2CCCC[C@H]2C(=O)N(C)[C@@H](C(C)C)C(=O)N(C)[C@@H](C(C)C)C(=O)N(C)[C@H](CC(=O)OC(C)(C)C)C(=O)N(C)[C@@H]([C@@H](C)CC)C(=O)N1C
Activity (CHO [1]): 3.6
Activity (CHO [2]): 8.7
Activity (CHO [3]): 1.2
Activity (CHO [4]): 24

CC[C@@H](C)[C@H]1C(=O)N(C)CC(=O)N(C)[C@@H](C(C)C)C(=O)N(C)[C@@H](Cc2ccc(OC)cc2)C(=O)O[C@H](C)C(=O)N2CCCC[C@H]2C(=O)N(C)[C@@H](C(C)C)C(=O)N(C)[C@@H](C(C)C)C(=O)N(C)[C@H](CC(=O)OC)C(=O)N(C)[C@@H]([C@@H](C)CC)C(=O)N1C
Activity (CHO [1]): 1.3
Activity (CHO [2]): 4.6
Activity (CHO [3]): 1.1
Activity (CHO [4]): 5.5

CC[C@H](C)[C@H]1C(=O)NCC(=O)N(C)[C@@H](C(C)C)C(=O)N[C@@H](Cc2ccc(OC)cc2)C(=O)O[C@H](C)C(=O)N2CCCC[C@H]2C(=O)N(C)[C@@H](C(C)C)C(=O)N[C@@H](C(C)C)C(=O)N(C)[C@@H](CC(=O)OCCC(C)C)C(=O)N(C)[C@@H]([C@@H](C)CC)C(=O)N1C
Activity (CHO [1]): 5.7
Activity (CHO [2]): 7.8
Activity (CHO [3]): 1.3
Activity (CHO [4]): 57

CC[C@H](C)[C@H]1C(=O)NCC(=O)N(C)[C@@H](C(C)C)C(=O)N[C@@H](Cc2ccc(OC)cc2)C(=O)O[C@H](C)C(=O)N2CCCC[C@H]2C(=O)N(C)[C@@H](C(C)C)C(=O)N[C@@H](C(C)C)C(=O)N(C)[C@@H](CC(=O)OC2C3CC4CC(C3)CC2C4)C(=O)N(C)[C@@H]([C@@H](C)CC)C(=O)N1C (stereo partly specified)
Activity (CHO [1]): 3.4
Activity (CHO [2]): 6.1
Activity (CHO [3]): 1.1
Activity (CHO [4]): 29

C=CCNC(=O)C[C@@H]1C(=O)N(C)[C@@H]([C@@H](C)CC)C(=O)N(C)[C@@H]([C@H](C)CC)C(=O)NCC(=O)N(C)[C@@H](C(C)C)C(=O)N[C@@H](Cc2ccc(OC)cc2)C(=O)O[C@H](C)C(=O)N2CCCC[C@H]2C(=O)N(C)[C@@H](C(C)C)C(=O)N[C@@H](C(C)C)C(=O)N1C
Activity (CHO [1]): 5
Activity (CHO [2]): 9.3
Activity (CHO [3]): 1.1
Activity (CHO [4]): 67

CC[C@@H](C)[C@H]1C(=O)NCC(=O)N(C)[C@@H](C(C)C)C(=O)N[C@@H](Cc2ccc(OC)cc2)C(=O)O[C@@H](C)C(=O)N2CCCC[C@H]2C(=O)N(C)[C@@H](C(C)C)C(=O)N[C@@H](C(C)C)C(=O)N(C)[C@H](CC(=O)NC2CCCCC2)C(=O)N(C)[C@@H]([C@@H](C)CC)C(=O)N1C
Activity (CHO [3]): 72
Activity (CHO [4]): 286

CC[C@H](C)[C@H]1C(=O)NCC(=O)N(C)[C@@H](C(C)C)C(=O)N[C@@H](Cc2ccc(O)cc2)C(=O)O[C@H](C)C(=O)N2CCCC[C@H]2C(=O)N(C)[C@@H](C(C)C)C(=O)N[C@@H](C(C)C)C(=O)N(C)[C@@H](CC(=O)OCc2ccccc2)C(=O)N(C)[C@@H]([C@@H](C)CC)C(=O)N1C
Activity (CHO [1]): 4.4
Activity (CHO [2]): 14
Activity (CHO [3]): 1.2
Activity (CHO [4]): 26

CC[C@@H](C)[C@H]1C(=O)NCC(=O)N(C)[C@@H](C(C)C)C(=O)N[C@@H](Cc2ccc(OC)cc2)C(=O)O[C@@H](C)C(=O)N2CCCC[C@H]2C(=O)N(C)[C@@H](C(C)C)C(=O)N[C@@H](C(C)C)C(=O)N(C)[C@H](CC(=O)N[C@H](C(=O)OC(C)(C)C)C(C)C)C(=O)N(C)[C@@H]([C@@H](C)CC)C(=O)N1C
Activity (CHO [1]): 8.6
Activity (CHO [2]): 11
Activity (CHO [3]): 115
Activity (CHO [4]): 344

CC[C@@H](C)[C@H]1C(=O)NCC(=O)N(C)[C@@H](C(C)C)C(=O)N[C@@H](Cc2ccc(OC)cc2)C(=O)O[C@H](C)C(=O)N2CCCC[C@H]2C(=O)N(C)[C@@H](C(C)C)C(=O)N[C@@H](C(C)C)C(=O)N(C)[C@H](CC(=O)N(C)C)C(=O)N(C)[C@@H]([C@@H](C)CC)C(=O)N1C
Activity (CHO [1]): 5.9
Activity (CHO [2]): 8.5
Activity (CHO [3]): 1.2
Activity (CHO [4]): 36

CC[C@@H](C)[C@H]1C(=O)NCC(=O)N(C)[C@@H](C(C)C)C(=O)N[C@@H](Cc2ccc(OC)cc2)C(=O)N[C@@H](C)C(=O)N2CCCC[C@H]2C(=O)N(C)[C@@H](C(C)C)C(=O)N[C@@H](C(C)C)C(=O)N(C)[C@H](CC(=O)OC(C)(C)C)C(=O)N(C)[C@@H]([C@@H](C)CC)C(=O)N1C
Activity (CHO [1]): 4.6
Activity (CHO [2]): 6.2
Activity (CHO [3]): 5.2
Activity (CHO [4]): 144

CC[C@@H](C)[C@H]1C(=O)NCC(=O)N(C)[C@@H](C(C)C)C(=O)N[C@@H](Cc2ccc(OC)cc2)C(=O)O[C@H](C)C(=O)N2CCCC[C@H]2C(=O)N(C)[C@@H](C(C)C)C(=O)N[C@@H](C(C)C)C(=O)N(C)[C@H](CC(=O)NC(c2ccccc2)c2ccccc2)C(=O)N(C)[C@@H]([C@@H](C)CC)C(=O)N1C
Activity (CHO [1]): 7.5
Activity (CHO [2]): 13
Activity (CHO [3]): 6.4
Activity (CHO [4]): 147

CC[C@H](C)[C@H]1C(=O)NCC(=O)N(C)[C@@H](C(C)C)C(=O)N[C@@H](Cc2ccc(OC)cc2)C(=O)O[C@H](C)C(=O)N2CCCC[C@H]2C(=O)N(C)[C@@H](C(C)C)C(=O)N[C@@H](C(C)C)C(=O)N(C)[C@@H](CC(=O)NCc2ccco2)C(=O)N(C)[C@@H]([C@@H](C)CC)C(=O)N1C
Activity (CHO [1]): 6.8
Activity (CHO [2]): 10
Activity (CHO [3]): 1.6
Activity (CHO [4]): 91

CC[C@H](C)[C@H]1C(=O)NCC(=O)N(C)[C@@H](C(C)C)C(=O)N[C@@H](Cc2ccc(OC)cc2)C(=O)O[C@H](C)C(=O)N2CCCC[C@H]2C(=O)N(C)[C@@H](C(C)C)C(=O)N[C@@H](C(C)C)C(=O)N(C)[C@@H](CC(=O)NC[Si](C)(C)C)C(=O)N(C)[C@@H]([C@@H](C)CC)C(=O)N1C
Activity (CHO [1]): 6.7
Activity (CHO [2]): 11
Activity (CHO [3]): 3.3
Activity (CHO [4]): 163

CC[C@H](C)[C@H]1C(=O)NCC(=O)N(C)[C@@H](C(C)C)C(=O)N[C@@H](Cc2ccc(OC(C)(C)C)cc2)C(=O)O[C@H](C)C(=O)N2CCCC[C@H]2C(=O)N(C)[C@@H](C(C)C)C(=O)N[C@@H](C(C)C)C(=O)N(C)[C@@H](CC(=O)OC(C)(C)C)C(=O)N(C)[C@@H]([C@@H](C)CC)C(=O)N1C
Activity (CHO [1]): 6.7
Activity (CHO [2]): 9
Activity (CHO [3]): 28
Activity (CHO [4]): 300

CC[C@@H](C)[C@H]1C(=O)NCC(=O)N(C)[C@@H](C(C)C)C(=O)N[C@@H](Cc2ccc(OCc3ccccc3)cc2)C(=O)O[C@H](C)C(=O)N2CCCC[C@H]2C(=O)N(C)[C@@H](C(C)C)C(=O)N[C@@H](C(C)C)C(=O)N(C)[C@H](CC(=O)O)C(=O)N(C)[C@@H]([C@@H](C)CC)C(=O)N1C
Activity (CHO [1]): 1.1
Activity (CHO [2]): 3.9
Activity (CHO [3]): 1.3
Activity (CHO [4]): 2.1

CC[C@H](C)[C@H]1C(=O)N(C)[C@@H]([C@@H](C)CC)C(=O)NCC(=O)N(C)[C@@H](C(C)C)C(=O)N[C@@H](Cc2ccc(OC)cc2)C(=O)O[C@H](C)C(=O)N2CCCC[C@H]2C(=O)N(C)[C@@H](C(C)C)C(=O)N[C@@H](C(C)C)C(=O)N(C)[C@H](CN(C)C(C=O)C/C=C/C(=O)OC(C)(C)C)C(=O)N1C (stereo partly specified)
Activity (CHO [1]): 7.6
Activity (CHO [2]): 8.7
Activity (CHO [3]): 19
Activity (CHO [4]): 97

CC[C@H](C)[C@H]1C(=O)N(C)[C@@H]([C@@H](C)CC)C(=O)NCC(=O)N(C)[C@@H](C(C)C)C(=O)N[C@@H](Cc2ccc(OC)cc2)C(=O)O[C@H](C)C(=O)N2CCCC[C@H]2C(=O)N(C)[C@@H](C(C)C)C(=O)N[C@@H](C(C)C)C(=O)N(C)[C@H](CC(=O)N2CCC[C@H]2C(=O)OC(C)(C)C)C(=O)N1C
Activity (CHO [1]): 6.8
Activity (CHO [2]): 8.2
Activity (CHO [3]): 10
Activity (CHO [4]): 222

CC[C@H](C)[C@H]1C(=O)NCC(=O)N(C)[C@@H](C(C)C)C(=O)N[C@@H](CC(=O)OC)C(=O)O[C@H](C)C(=O)N2CCCC[C@H]2C(=O)N(C)[C@@H](C(C)C)C(=O)N[C@@H](C(C)C)C(=O)N(C)[C@@H](CC(=O)OC)C(=O)N(C)[C@@H]([C@@H](C)CC)C(=O)N1C
Activity (CHO [1]): 1.9
Activity (CHO [2]): 5.6
Activity (CHO [3]): 1.1
Activity (CHO [4]): 3.5

— ChEMBL document CHEMBL1127553, “Derivatives of a novel cyclopeptolide. 2. Synthesis, activity against multidrug resistance in CHO and KB cells in vitro, and structure-activity relationships” (1994)
